Results: patent US11685747B2, “Compounds that inhibit MCL-1 protein” (AMGEN INC., priority 2014, dated 2023)

How the values were obtained:
recombinant human Mcl-1 = molecular target: T1, recombinant human Mcl-1 (Homo sapiens, UniProt Q07820); experiment: Cell free Mcl-1:Bim affinity assay (Mcl-1 HTRF, TR-FRET); assay type: binding; conditions: inhibition of Mcl-1/Bim interaction
T1 construct: C-terminally 6×His tagged Mcl-1 containing residues 171-327; made in house
Description: Cell Free Mcl-1:Bim Affinity Assay (Mcl-1 HTRF)
The inhibition of the Mcl-1/Bim interaction was measured using a time-resolved fluorescence resonance energy transfer (TR-FRET) assay. […] A biotinylated peptide derived from human Bim (residues 51-76) was purchased from CPC Scientific (San Jose, Calif.). The TR-FRET assay was conducted in a 384-well white OptiPlate™ (PerkinElmer, Waltham, Mass.) in a total volume of 40 μL. […] The reaction plates were further incubated overnight and then were read on an Envision® multimode reader (PerkinElmer). […] The IC50 values of test compounds were determined from duplicate data by analyzing competition curves using a four-parameter sigmoidal model in GraphPad Prism (GraphPad Software, San Diego, Calif.) or in Genedata Screener® (Genedata, Basel, Switzerland).

[1] = molecular target: T2, Mcl-1/Bak protein-protein interactions (Homo sapiens, UniProt Q07820); experiment: Cell-based split luciferase complementation assay; conditions: HEK 293 M cells, serum-free, 4 h
T2 construct: expressed in transfected cells; host or cells: HEK 293 M cells, transient transfection
T2 sequence (Q07820 whole entry): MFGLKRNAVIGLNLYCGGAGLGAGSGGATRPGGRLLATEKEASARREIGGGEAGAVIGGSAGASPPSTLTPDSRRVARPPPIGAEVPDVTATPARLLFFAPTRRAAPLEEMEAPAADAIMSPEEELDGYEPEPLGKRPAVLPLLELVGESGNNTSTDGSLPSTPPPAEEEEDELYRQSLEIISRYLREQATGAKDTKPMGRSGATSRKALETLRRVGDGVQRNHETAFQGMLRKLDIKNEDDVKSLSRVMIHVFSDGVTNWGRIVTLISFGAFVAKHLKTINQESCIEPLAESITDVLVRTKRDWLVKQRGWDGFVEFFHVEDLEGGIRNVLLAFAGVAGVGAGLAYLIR
Description: Cell-Based Assay (Split Luciferase)
A split luciferase complementation assay was developed to determine the inhibition of Mcl-1/Bak protein-protein interactions in cells. […] Transient transfection was performed using Lipofectamine® LTX/Plus™ reagent (Life Technologies, Grand Island, N.Y.). 24 h after transfection, cells were collected using non-enzyme based cell dissociation buffer StemPro® Accutase® (Life Technologies), and resuspended in serum-free Opti-MEM® (Life Technologies). Cells were then seeded into assay plates with serially diluted test compounds in 0.3% DMSO at density of a 5000 cells/well. Cells were then incubated for 4 h at 37° C. in a cell culture incubator supplement with 5% CO2. Test plates were equilibrated to room temperate for 30 min before addition of 30 μL Steady-Glo® Luciferase assay reagent (Promega, Madison, Wis.) into each test well. Luminescence was determined using an EnVision® Multilabel plate reader 25 min after the addition of detection reagent. IC50 values were then calculated with Xlfit using a logistical 4-parameter fit model in GraphPad Prism (GraphPad Software, San Diego, Calif.) or in Genedata Screener® (Genedata, Basel, Switzerland).

OPM-2 = experiment: Cell viability assay (OPM-2 10 FBS, CellTiter-Glo); assay type: cell-based, human; conditions: OPM-2 cells
Description: Cell Viability Assay (OPM-2 10 FBS)
Cells were seeded into 384-well plates at 3000 cells/well density in complete growth medium containing 10% FBS, and incubated for 16 h with serially diluted test compounds in a 37° C. incubator with 5% CO2. Cell viability was tested using CellTiter-Glo® assay (Promega, Madison, Wis.) according to the manufacturer recommendations. Luminescence was determined using an EnVision® Multilabel plate reader 25 min after the addition of detection reagent. IC50 values were then calculated with Xlfit using a logistical 4-parameter fit model in GraphPad Prism (GraphPad Software, San Diego, Calif.) or in Genedata Screener® (Genedata, Basel, Switzerland).

T1 sequence (Q07820 171-327): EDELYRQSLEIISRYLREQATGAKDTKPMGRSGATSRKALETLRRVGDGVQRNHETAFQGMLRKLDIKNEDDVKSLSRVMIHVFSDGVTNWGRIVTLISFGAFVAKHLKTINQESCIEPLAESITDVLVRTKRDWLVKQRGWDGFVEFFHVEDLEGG

Compound	IC50 (recombinant human Mcl-1)	IC50 [1]	IC50 (OPM-2; 16 h)	IC50 (OPM-2; Homo sapiens, OPM-2, 16 h)
CC(C)[C@@H]1[C@H](C)C/C=C/[C@H](O)[C@@H]2CC[C@H]2CN2C[C@@]3(CCCc4cc(Cl)ccc43)COc3ccc(cc32)C(=O)NS1(=O)=O (single isomer, unassigned) [Example 50]	1.01 nM	232 nM	1320 nM	–
CC[C@@H]1CCCC[C@H](OC)[C@@H]2CC[C@H]2CN2C[C@@]3(CCCc4cc(Cl)ccc43)COc3ccc(cc32)C(=O)NS1(=O)=O [Example 21, (1S,3′R,6′R,7′S,12′R)-6-Chloro-12′-Ethyl-7′-Methoxy-3,4-Dihydro-2H,15′H-Spiro[Naphthalene-1,22′-[20]Oxa[13]Thia[1,14]Diazatetracyclo[14.7.2.0^3,6.0^19,24]Pentacos A[16,18,24]Trien]-15′-One 13′,13′-Dioxide]	2.78 nM	192 nM	–	4170 nM
CC[C@@H]1CCCC[C@H](O)[C@@H]2CC[C@H]2CN2C[C@@]3(CCCc4ccccc43)COc3ccc(cc32)C(=O)NS1(=O)=O [Example 22, (1S,3′R,6′R,7′S,12′R)-12′-Ethyl-7′-Hydroxy-3,4-Dihydro-2H,15′H-Spiro[Naphthalene-1,22′-[20]Oxa[13]Thia[1,14]Diazatetracyclo[14.7.2.0^3,6.0^19,24]Pentacos A[16,18,24]Trien]-15′-One 13′,13′-Dioxide]	0.704 nM	117 nM	–	1250 nM
C[C@@H]1CCC[C@H](O)[C@@H]2CC[C@H]2CN2C[C@@]3(CCCc4cc(Cl)ccc43)COc3ccc(cc32)C(=O)NS(=O)(=O)[C@@H]1C (single isomer, unassigned) [Example 35]	0.955 nM	84.3 nM	723 nM	–
CC(C)[C@@H]1[C@H](C)C/C=C/[C@H](O)[C@@H]2CC[C@H]2CN2C[C@@]3(CCCc4cc(Cl)ccc43)COc3ccc(cc32)C(=O)NS1(=O)=O (single isomer, unassigned) [Example 49]	0.317 nM	46.2 nM	184 nM	–
CC1(C)CC/C=C\[C@H](O)[C@@H]2CC[C@H]2CN2C[C@@]3(CCCc4cc(Cl)ccc43)COc3ccc(cc32)C(=O)NS1(=O)=O (single isomer, unassigned) [Example 41]	4.42 nM	128 nM	–	4750 nM
C[C@@H]1C/C=C/[C@H](O)[C@@H]2CC[C@H]2CN2C[C@@]3(CCCc4cc(Cl)ccc43)COc3ccc(cc32)C(=O)NS(=O)(=O)C1 (single isomer, unassigned) [Example 30]	0.38 nM	26.5 nM	161 nM	–
C[C@@H]1[C@@H](C)CCC[C@H](O)[C@@H]2CC[C@H]2CN2C[C@@]3(CCCc4cc(Cl)ccc43)COc3ccc(cc32)C(=O)NS1(=O)=O [Example 6, (1S,3′R,6′R,7′S,11′S,12′R)-6-Chloro-7′-Hydroxy-11′,12′-Dimethyl-3,4-Dihydro-2H,15′H-Spiro[Naphthalene-1,22′-[20]Oxa[13]Thia[1,14]Diazatetracyclo[14.7.2.0^3,6.0^19,24]Pentacos A[16,18,24]Trien]-15′-One 13′,13′-Dioxide]	0.447 nM	57.5 nM	–	394 nM
CO[C@H]1/C=C/CCCS(=O)(=O)NC(=O)c2ccc3c(c2)N(C[C@@H]2CC[C@H]21)C[C@@]1(CCCc2cc(Cl)ccc21)CO3 [Example 9, (1S,3′R,6′R,7′S,8′E)-6-Chloro-7′-Methoxy-3,4-Dihydro-2H,15′H-Spiro[Naphthalene-1,22′-[20]Oxa[13]Thia[1,14]Diazatetracyclo[14.7.2.0^3,6.0^19,24]Pentacos A[8,16,18,24]Tetraen]-15′-One 13′,13′-Dioxide]	1.24 nM	127 nM	–	1200 nM
COCCO[C@H]1/C=C/C[C@@H](C)CS(=O)(=O)NC(=O)c2ccc3c(c2)N(C[C@@H]2CC[C@H]21)C[C@@]1(CCCc2cc(Cl)ccc21)CO3 (single isomer, unassigned) [Example 77]	6.12 nM	260 nM	3160 nM	–
CC(C)C[C@@H]1[C@@H](C)C/C=C/[C@H](O)[C@@H]2CC[C@H]2CN2C[C@@]3(CCCc4cc(Cl)ccc43)COc3ccc(cc32)C(=O)NS1(=O)=O (single isomer, unassigned) [Example 67]	1.08 nM	84.8 nM	600 nM	–
C[C@H]1C/C=C/[C@H](O)[C@@H]2CC[C@H]2CN2C[C@@]3(CCCc4cc(Cl)ccc43)COc3ccc(cc32)C(=O)NS(=O)(=O)[C@@H]1CC1CC1 (single isomer, unassigned) [Example 60]	0.514 nM	23.4 nM	158 nM	–
C[C@H]1C/C=C/[C@H](O)[C@@H]2CC[C@H]2CN2C[C@@]3(CCCc4cc(Cl)ccc43)COc3ccc(cc32)C(=O)NS(=O)(=O)[C@@H]1C1CC1 (single isomer, unassigned) [Example 46]	0.728 nM	78.3 nM	334 nM	–
CC1(C)C/C=C/[C@H](O)[C@@H]2CC[C@H]2CN2C[C@@]3(CCCc4cc(Cl)ccc43)COc3ccc(cc32)C(=O)NS(=O)(=O)C1 [Example 1, (1S,3′R,6′R,7′S,8′E)-6-Chloro-7′-Hydroxy-11′,11′-Dimethyl-3,4-Dihydro-2H,15′H-Spiro[Naphthalene-1,22′-[20]Oxa[13]Thia[1,14]Diazatetracyclo[14.7.2.0^3,6.0^19,24]Pentacos A[8,16,18,24]Tetraen]-15′-One 13′,13′-Dioxide]	0.852 nM	163 nM	–	1880 nM
C[C@H]1C/C=C/[C@H](O)[C@@H]2CC[C@H]2CN2C[C@@]3(CCCc4cc(Cl)ccc43)COc3ccc(cc32)C(=O)NS(=O)(=O)[C@@H]1CC1CC1 (single isomer, unassigned) [Example 59]	0.492 nM	61.5 nM	247 nM	–
C[C@H]1C/C=C/[C@H](O)[C@@H]2CC[C@H]2CN2C[C@@]3(CCCc4cc(Cl)ccc43)COc3ccc(cc32)C(=O)NS(=O)(=O)[C@@H]1C1CC1 (single isomer, unassigned) [Example 44]	0.297 nM	21.5 nM	208 nM	–
COCCO[C@H]1/C=C/C[C@@H](C)[C@@H](C(C)C)S(=O)(=O)NC(=O)c2ccc3c(c2)N(C[C@@H]2CC[C@H]21)C[C@@]1(CCCc2cc(Cl)ccc21)CO3 [Example 54, (1S,3′R,6′R,7′S,8′E,11′R,12′R)-6-Chloro-7′-(2-Methoxyethoxy)-11′-Methyl-12′-(1-Methylethyl)-3,4-Dihydro-2H,15′H-Spiro[Naphthalene-1,22′-[20]Oxa[13]Thia[1,14]Diazatetracyclo[14.7.2.0^3,6.0^19,24]Pentacosa[8,16,18,24]Tetraen]-15′-One 13′,13′-Dioxide]	0.153 nM	29.1 nM	–	131 nM
COCCO[C@H]1/C=C/C[C@H](C)[C@@H](C)S(=O)(=O)NC(=O)c2ccc3c(c2)N(C[C@@H]2CC[C@H]21)C[C@@]1(CCCc2cc(Cl)ccc21)CO3 [Example 74, (1S,3′R,6′R,7′S,8′E,11′S,12′R)-6-Chloro-7′-(2-Methoxyethoxy)-11′,12′-Dimethyl-3,4-Dihydro-2H,15′H-Spiro[Naphthalene-1,22′-[20]Oxa[13]Thia[1,14]Diazatetracyclo[14.7.2.0^3,6.0^19,24]Pentacosa[8,16,18,24]Tetraen]-15′-One-13′, 13′-Dioxide]	2.23 nM	273 nM	–	1740 nM
CC(C)O[C@H]1/C=C/C[C@H](C)[C@@H](C)S(=O)(=O)NC(=O)c2ccc3c(c2)N(C[C@@H]2CC[C@H]21)C[C@@]1(CCCc2cc(Cl)ccc21)CO3 [Example 43, (1S,3′R,6′R,7′S,8′E,11′S,12′R)-6-Chloro-11′,12′-Dimethyl-7′-(1-Methylethoxy)-3,4-Dihydro-2H,15′H-Spiro[Naphthalene-1,22′-[20]Oxa[13]Thia[1,14]Diazatetracyclo[14.7.2.0^3,6.0^19,24]Pentacos A[8,16,18,24]Tetraen]-15′-One-13′,13′-Dioxide]	1.75 nM	130 nM	–	902 nM
CC[C@@H]1C/C=C/[C@H](O)[C@@H]2CC[C@H]2CN2C[C@@]3(CCCc4cc(Cl)ccc43)COc3ccc(cc32)C(=O)NS(=O)(=O)C1 (single isomer, unassigned) [Example 33]	7.02 nM	872 nM	–	14900 nM
